Measured values reported in patent US7998965B2, “Glutamate aggrecanase inhibitors” (Wyeth LLC, priority 2005, dated 2011).

Tests used:
[1] = test system: bovine articular cartilage treated with Interleukin 1 alpha (IL-1α); test: Bovine articular cartilage explant cultures: inhibition of degradation of proteoglycan; assay type: cell-based; details: inhibitory effect expressed as percentage, concentration not printed
Summary of the method: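 Bovine metacarpal cartilage discs (6 mm), equilibrated in serum-free DMEM-based medium, were treated with 5 ng/ml IL-1 plus compound (working solutions 0.1-10 μg/ml), with medium collected and replaced on days 1, 2 and 3. Released proteoglycan was measured by DMMB absorbance at 520 nm against chondroitin sulphate standards, expressed as μg per mg cartilage, and inhibition given as percentage.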

[2] = test system: newly synthesized aggrecan in human OA articular cartilage; test: Cartilage aggrecan metabolism study in human OA cartilage explants; assay type: cell-based; details: cartilage from 3 human OA donors, 35SO4 label
Description: Human OA Cartilage Explant Culture: Discarded tissues from consented knee replacement patients were obtained from New England Baptist Hospital (Brookline, Mass.) in sterile phosphate buffered saline (PBS) after about 2-4 hrs post surgery. Cartilage slices were harvested from the knee specimens and washed several times in PBS. These cartilage slices were cut into appropriate pieces (6-8 mm) and rinsed in PBS and then in media and further cultured for additional days as cartilage explants. The medium consisted of Dulbecco's Modified Eagle's medium (DMEM, JRH Biosciences, Lenexa, Kans.), 50 μg/ml ascorbic acid (Wako, Osaka, Japan), 10 mM HEPES, pH 7.0 (Mediatech, Herndon, Va.), 2 mM L-glutamine (Mediatech), 100 U/ml antibiotic-antimycotic solution (Mediatech).
Cartilage aggrecan metabolism study: Cartilage metabolism study was performed with test compound 8OO. Cartilage explants immediately after harvest were cultured in the presence or absence of test compound 8OO. On day 3, media was collected and replaced with media, test compound and labeled sulfate (^35SO4,5 mCi, Perkin Elmer, Boston, Mass.). On day 6, media was collected, explants washed and replaced with media and test compound 8OO. […] Labeled aggrecan molecules were counted using Opti-Fluor (Perkin Elmer) and a liquid scintillation-measuring instrument (Beckman Coulter, Fullerton, Calif.). […]

[3] = molecular target: T1, recombinant human catalytic domain of MMP-13 (Homo sapiens, UniProt P45452); test: In vitro fluorescence assay of MMP-13 activity; assay type: biochemical; details: Table 1; unit inferred
T1 construct: catalytic domain of MMP-13 (165 amino acids, residues 104-268, 19 kDa)

recombinant human MMP-2 = molecular target: T2, recombinant human MMP-2 (Homo sapiens, UniProt P08253); test: In vitro fluorescence assay of MMP-2 activity
T2 sequence (P08253 110-660): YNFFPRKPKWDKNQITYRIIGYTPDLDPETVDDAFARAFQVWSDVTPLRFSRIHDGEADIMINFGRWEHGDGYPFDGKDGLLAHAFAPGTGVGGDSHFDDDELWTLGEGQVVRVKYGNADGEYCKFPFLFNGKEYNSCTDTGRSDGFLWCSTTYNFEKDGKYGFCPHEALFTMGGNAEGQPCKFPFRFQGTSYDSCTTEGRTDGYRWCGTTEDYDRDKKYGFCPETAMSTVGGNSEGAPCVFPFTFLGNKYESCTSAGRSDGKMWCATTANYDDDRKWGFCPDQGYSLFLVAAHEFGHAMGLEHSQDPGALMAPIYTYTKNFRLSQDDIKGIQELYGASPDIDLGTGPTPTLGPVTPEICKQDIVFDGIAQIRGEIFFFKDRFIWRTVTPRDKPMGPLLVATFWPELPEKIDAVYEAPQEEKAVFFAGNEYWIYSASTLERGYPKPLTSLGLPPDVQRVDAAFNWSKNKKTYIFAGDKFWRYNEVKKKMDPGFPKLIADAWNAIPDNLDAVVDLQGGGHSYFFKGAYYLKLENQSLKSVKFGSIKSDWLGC

[4] = molecular target: T3, recombinant human catalytic domain of MMP-14 (Homo sapiens, UniProt P50281); test: In vitro fluorescence assay of MMP-14 activity; assay type: biochemical; details: Table 1; unit inferred
T3 construct: 177 amino acids corresponding to Tyr89-Gly265 of mature human enzyme; purchased Chemicon International, Inc. CC1041

- IC50 [3]: > 50 µM
- IC50 (recombinant human MMP-2): > 20 µM
- IC50 [4]: > 200 µM
SMILES: CC(C)(Cc1ccc(F)cc1)NC(=O)[C@H](CCC(=O)O)NC(=O)c1ccc(-c2ccccc2)cc1 [Example 8OO, N^2-(1,1′-biphenyl-4-ylcarbonyl)-N^1-[2-(4-fluorophenyl)-1,1-dimethylethyl]-L-α-glutamine]
- bovine ([1]; Table 1, first of two columns headed bovine): 87%
- bovine ([1]; Table 1, second of two columns headed bovine): 40%
- aggrecan released into the medium [2]: equivalent decrease
- newly synthesized aggrecan content of the cartilage matrix [2]: dose dependent increase
